Source: US20230167127A1, “COMPOUNDS AND THEIR USE IN THE TREATMENT OF BACTERIAL INFECTION” (Hoffmann-La Roche Inc., priority 2020, published 2023)
pIC50: −log10 of the molar value. Where two headings read alike, the source gives them in different places.

Tested on: Escherichia coli ATCC 25922
Assay: 50% growth inhibitory concentration (IC50) determination, Iso-Sensitest broth dilution
Format: cell-based
Settings: strain Escherichia coli ATCC 25922, 10-point broth dilution, optical density at 600 nm over 16 h, read-out: Escherichia coli growth inhibition IC50
In short: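 10-point twofold Iso-Sensitest broth dilution (e.g. 50 to 0.097 μM final) with DMSO stocks, incubated at 35±2° C. Growth followed by OD 600 nm every 20 min over 16 h; IC50 derived from growth inhibition during logarithmic phase.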

[1] = Escherichia coli, ATCC25922, 16 h

## CS(=O)(=O)NCCOc1ccc2c(c1C#N)CC(CNCCC1CN(c3ccc4c(n3)NC(=O)CO4)C(=O)O1)C2 (stereo not shown) [Example 59, N-[2-[[4-cyano-2-[[2-[2-oxo-3-(3-oxo-4H-pyrido[3,2-b][1,4]oxazin-6-yl)-1,3-oxazolidin-5-yl]ethylamino]methyl]-2,3-dihydro-1H-inden-5-yl]oxy]ethyl]methanesulfonamide]
[1]
  pIC50: 6.60

## Cc1ncc(F)c2c1CC(CN1CCC3(CC1)CN(c1ccc4c(n1)NC(=O)CO4)C(=O)O3)C2 (stereo not shown) [Example 72, 6-[8-[(4-fluoro-1-methyl-6,7-dihydro-5H-cyclopenta[c]pyridin-6-yl)methyl]-2-oxo-1-oxa-3,8-diazaspiro[4.5]decan-3-yl]-4H-pyrido[3,2-b][1,4]oxazin-3-one]
[1]
  pIC50: 7.16

## COc1nc(C)c2c(c1F)CC(CNCCC1CN(c3cnc4c(n3)NC(=O)CO4)C(=O)O1)C2 (stereo not shown) [Example 397, 6-[5-[2-[(4-fluoro-3-methoxy-1-methyl-6,7-dihydro-5H-cyclopenta[c]pyridin-6-yl)methylamino]ethyl]-2-oxo-1,3-oxazolidin-3-yl]-4H-pyrazino[2,3-b][1,4]oxazin-3-one]
[1]
  pIC50: > 7.01

## CN(C)C(=O)COc1cc(F)c2c(c1)CC(CNCCC1CN(c3ccc4c(n3)NC(=O)CO4)C(=O)O1)C2 (stereo not shown) [Example 77, 2-[[7-fluoro-2-[[2-[2-oxo-3-(3-oxo-4H-pyrido[3,2-b][1,4]oxazin-6-yl)-1,3-oxazolidin-5-yl]ethylamino]methyl]-2,3-dihydro-1H-inden-5-yl]oxy]-N,N-dimethylacetamide]
[1]
  pIC50: 6.41

## NC1c2c(Cl)cccc2CC1CNCCC1CN(c2cnc3c(n2)NC(=O)CO3)C(=O)O1 (racemic) [Example 169, 6-[2-oxo-5-[2-[[rac-1,2-trans-1-amino-7-chloro-2,3-dihydro-1H-inden-2-yl]methylamino]ethyl]-1,3-oxazolidin-3-yl]-4H-pyrazino[2,3-b][1,4]oxazin-3-one]
[1]
  pIC50: > 7.01

## CC(=O)N1CC(Oc2cc(F)c3c(c2)CC(CNCCC2CN(c4cnc5c(n4)NC(=O)CO5)C(=O)O2)C3)C1 (stereo not shown) [Example 354, 6-[5-[2-[[6-(1-acetylazetidin-3-yl)oxy-4-fluoro-2,3-dihydro-1H-inden-2-yl]methylamino]ethyl]-2-oxo-1,3-oxazolidin-3-yl]-4H-pyrazino[2,3-b][1,4]oxazin-3-one; formic acid]
[1]
  pIC50: 6.41

## Cc1ncc(C#N)c2c1CC(CNCCC1CN(c3cnc4c(n3)NC(=O)CO4)C(=O)O1)C2 (stereo not shown) [Example 291, 1-methyl-6-[[2-[2-oxo-3-(3-oxo-4H-pyrazino[2,3-b][1,4]oxazin-6-yl)-1,3-oxazolidin-5-yl]ethylamino]methyl]-6,7-dihydro-5H-cyclopenta[c]pyridine-4-carbonitrile;2,2,2-trifluoroacetic acid]
[1]
  pIC50: > 7.01

## O=C1COc2ccc(N3CC(CCNC4Cc5ccc(Cl)cc5C4)OC3=O)nc2N1 (stereo not shown) [Example 11, 6-[5-[2-[(5-chloro-2,3-dihydro-1H-inden-2-yl)amino]ethyl]-2-oxo-1,3-oxazolidin-3-yl]-4H-pyrido[3,2-b][1,4]oxazin-3-one]
[1]
  pIC50: 5.62

## Cc1nccc2c1CC(NCCCc1cn(-c3cnc4c(n3)NC(=O)CO4)c(=O)o1)C2 (single isomer, unassigned; enantiomer b) [Example 370, 6-[5-[3-[(1-Methyl-6,7-dihydro-5H-cyclopenta[c]pyridin-6-yl)amino]propyl]-2-oxo-1,3-oxazol-3-yl]-4H-pyrazino[2,3-b][1,4]oxazin-3-one; formic acid, Enantiomer B]
  pIC50: 6.71

## NC1c2cccc(Cl)c2CC1CNCCC1CN(c2cnc3c(c2)NC(=O)CO3)C(=O)O1 (racemic) [Example 135, 7-[2-oxo-5-[2-[[rac-1,2-trans-1-amino-4-chloro-2,3-dihydro-1H-inden-2-yl]methylamino]ethyl]-1,3-oxazolidin-3-yl]-1H-pyrido[2,3-b][1,4]oxazin-2-one; formic acid]
[1]
  pIC50: 5.24
